Values quoted from earlier work as cited in patent US20050197327A1, “Compounds, compositions, and methods” (priority 2003, published 2005).

Tested on: A549 cells
Conditions: data provided by National Cancer Institute

In order of falling GI50:
1. NC(=O)NO [hydroxyurea]  500000 nM
2. O=c1[nH]cc(F)c(=O)[nH]1 [5-fluorouracil]  1000 nM
3. COc1cccc2c1C(=O)c1c(O)c3c(c(O)c1C2=O)C[C@@](O)(C(=O)CO)C[C@@H]3O[C@H]1C[C@H](N)[C@H](O)[C@H](C)O1 [doxorubicin]  63 nM
4. CC(=O)O[C@H]1C(=O)[C@@]2(C)[C@H]([C@H](OC(=O)c3ccccc3)[C@]3(O)C[C@H](OC(=O)[C@H](O)[C@@H](NC(=O)c4ccccc4)c4ccccc4)C(C)=C1C3(C)C)[C@]1(OC(C)=O)CO[C@@H]1C[C@@H]2O [paclitaxel]  4 nM
